Test results published in US12275703B2, “Highly purified batches of pharmaceutical grade migalastat and methods of producing the same” (Amicus Therapeutics, Inc., priority 2020, dated 2025).

Tested on: bacterial reverse mutation
Experiment: bacterial reverse mutation (Ames) test
Assay type: cell-based
Settings: for Ames Positive?: bacterial reverse mutation (Ames) test; for Designated Genotoxin?: designation from Derek and Ames outcome
Experimental: The starting materials, reagents, intermediates, and process impurities generated in the manufacturing process for migalastat hydrochloride were assessed for their potential genotoxicity using in silico (Derek for Windows v13 Lhasa Ltd) screening software. The chemical structures which were DEREK negative were evaluated using Leadscope (Model Applier and Expert Alerts). […] Where possible, the genotoxicity of these materials was then assessed via the use of the bacterial reverse mutation (Ames) test.

SMILES	Ames Positive?	Designated Genotoxin?	further results
CC(C)(C)C(=O)OC[C@@H](N=[N+]=[N-])[C@@H]1O[C@@H](OC(=O)C(C)(C)C)[C@H](OC(=O)C(C)(C)C)[C@H]1OC(=O)C(C)(C)C [5-azido-5-deoxy-1,2,3,6-tetrapivaloyl-D-galactofuranoside]	No	No	–
CC(C)(C)C(=O)OC[C@@H](OS(=O)(=O)C(F)(F)F)[C@@H]1O[C@@H](OC(=O)C(C)(C)C)[C@H](OC(=O)C(C)(C)C)[C@H]1OC(=O)C(C)(C)C [Compound D]	not sufficiently stable for Ames testing	designated as genotoxins	Ames Positive? (listed as drawing 74): Insufficiently stable for Ames test; Designated Genotoxin? (listed as drawing 74): Yes
CC(C)(C)C(=O)OC[C@H](OS(=O)(=O)C(F)(F)F)[C@@H]1O[C@@H](OC(=O)C(C)(C)C)[C@H](OC(=O)C(C)(C)C)[C@H]1OC(=O)C(C)(C)C [Compound F]	not sufficiently stable for Ames testing	designated as genotoxins	Ames Positive? (listed as drawing 75): Insufficiently stable for Ames test; Designated Genotoxin? (listed as drawing 75): Yes
CC(C)(C)C(=O)OC[C@H](N=[N+]=[N-])[C@@H]1O[C@@H](OC(=O)C(C)(C)C)[C@H](OC(=O)C(C)(C)C)[C@H]1OC(=O)C(C)(C)C [Compound N]	No	No	–
[N-]=[N+]=N[C@@H]1CO[C@@](O)(CO)[C@@H](O)[C@H]1O [Compound P]	Ames positive	confirmed as genotoxins	Ames Positive? (listed as drawing 79): Yes; Designated Genotoxin? (listed as drawing 79): Yes
[N-]=[N+]=N[C@H](CO)[C@@H]1O[C@@H](O)[C@H](O)[C@H]1O [Compound Q]	Ames positive	confirmed as genotoxins	Ames Positive? (listed as drawing 78): Yes; Designated Genotoxin? (listed as drawing 78): Yes
Cl.O[C@@H]1[C@H](O)[C@@H](O)CN[C@@H]1CCl [Compound X]	Ames positive	confirmed as genotoxins	Ames Positive? (listed as drawing 80): Yes; Designated Genotoxin? (listed as drawing 80): Yes
CCCl [Ethyl chloride]	Yes	Yes	–
